Laboratory results from PMC8301783, “Pitfalls of NMDA Receptor Modulation by Neuroactive Steroids. The Effect of Positive and Negative Modulation of NMDA Receptors in an Animal Model of Schizophrenia” (Biomolecules, 2021).

Target: T1, GABAA receptor (GABAAR)
T1 construct: native receptors in rat cerebral cortex membrane homogenates
Assay: […]TBPS radioligand displacement, rat cortex membranes
Format: binding

CC(=O)[C@H]1CC[C@H]2[C@@H]3CC[C@@H]4C[C@H](OC(=O)[C@@H](N)CCC(=O)O)CC[C@]4(C)[C@H]3CC[C@]12C [PA-Glu, pregnanolone glutamate]
IC50: 7.5 µM
